# From ChEMBL document CHEMBL1201862, “PubChem BioAssay data set” (2004)
#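 Results reflect a 48-hour exposure of cells in 96-well plates to compound at five concentrations. Abbreviation: GI50, concentration required for 50% inhibition of growth.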 Activity calls are given as the source filed them. Cut-off read from the data, not from the text of the source: active = GI50 up to about 1.1 µM and inactive = higher.
# Experiments:
# Assay in all cases: NCI-60 cell line screen, 48 h
# 786-0 = tested on: 786-0
# SNB-75 = tested on: SNB-75
# UACC-62 = tested on: UACC-62
# SN12C = tested on: SN12C
# OVCAR-8 = tested on: OVCAR-8
# M14 = tested on: M14
# HCT-15 = tested on: HCT-15
# MDA-MB-435 = tested on: MDA-MB-435
# OVCAR-5 = tested on: OVCAR-5
# CAKI-1 = tested on: CAKI-1
# HCT-116 = tested on: HCT-116
# SK-MEL-28 = tested on: SK-MEL-28
# SK-OV-3 = tested on: SK-OV-3
# HCC 2998 = tested on: HCC 2998
# HL-60 = tested on: HL-60
# KM12 = tested on: KM12
# UACC-257 = tested on: UACC-257
# NCI-H460 = tested on: NCI-H460
# MDA-N = tested on: MDA-N
# NCI-H522 = tested on: NCI-H522
SMILES,GI50 (786-0),GI50 (SNB-75),GI50 (UACC-62),GI50 (SN12C),GI50 (OVCAR-8),GI50 (M14),GI50 (HCT-15),GI50 (MDA-MB-435),GI50 (OVCAR-5),GI50 (CAKI-1),GI50 (HCT-116),GI50 (SK-MEL-28),GI50 (SK-OV-3),GI50 (HCC 2998),GI50 (HL-60),GI50 (KM12),GI50 (UACC-257),GI50 (NCI-H460),GI50 (MDA-N),GI50 (NCI-H522)
CC(=O)Oc1c2oc3ccc(Cl)cc3c(=O)c2c(O)c2ccsc12,> 100 µM (inactive),52.4 µM (inactive),> 100 µM (inactive),> 100 µM (inactive),> 100 µM (inactive),> 100 µM (inactive),> 100 µM,> 100 µM (inactive),> 100 µM (inactive),> 100 µM (inactive),> 100 µM (inactive),> 100 µM (inactive),> 100 µM (inactive),> 100 µM (inactive),> 100 µM (inactive),> 100 µM (inactive),> 100 µM (inactive),> 100 µM (inactive),> 100 µM (inactive),
c1ccc2nc3c(nc2c1)sc1nc2ccccc2n13,46.1 µM (inactive),> 100 µM (inactive),> 100 µM (inactive),> 100 µM (inactive),> 100 µM (inactive),> 100 µM (inactive),> 100 µM,> 100 µM (inactive),> 100 µM (inactive),> 100 µM (inactive),> 100 µM (inactive),,> 100 µM (inactive),> 100 µM (inactive),> 100 µM (inactive),> 100 µM (inactive),> 100 µM (inactive),> 100 µM (inactive),> 100 µM (inactive),
Cc1cccc2c(N)c3cccc(C(=O)NCC[N+](C)(C)Cc4ccccc4[N+](=O)[O-])c3nc12,4.22 µM (inactive),1.64 µM (inactive),8.05 µM (inactive),2.11 µM (inactive),5.89 µM (inactive),9.62 µM (inactive),> 20.3 µM,21.1 µM (inactive),13 µM (inactive),5.71 µM (inactive),5.92 µM (inactive),29.7 µM (inactive),12.6 µM (inactive),9.06 µM (inactive),,13.4 µM (inactive),24.3 µM (inactive),2.24 µM (inactive),16.9 µM (inactive),4.94 µM (inactive)
CCOC(=O)C1(Cc2ccccc2)Cc2cc3c(cc2C1=O)CCC3 (stereo unspecified),> 100 µM (inactive),> 100 µM (inactive),> 100 µM (inactive),> 100 µM (inactive),> 100 µM (inactive),92 µM (inactive),> 100 µM,> 100 µM (inactive),> 100 µM (inactive),,> 100 µM (inactive),> 100 µM (inactive),> 100 µM (inactive),> 100 µM (inactive),> 100 µM (inactive),> 100 µM (inactive),> 100 µM (inactive),> 100 µM (inactive),> 100 µM (inactive),
C(=N\c1ccc2c(c1)Cc1ccccc1-2)/c1ccccn1,34.8 µM (inactive),67.6 µM (inactive),89.3 µM (inactive),28.4 µM (inactive),> 100 µM (inactive),> 100 µM (inactive),48.3 µM,77.8 µM (inactive),> 100 µM (inactive),> 100 µM (inactive),30.5 µM (inactive),> 100 µM (inactive),,,,89.3 µM (inactive),27.1 µM (inactive),60.3 µM (inactive),28.9 µM (inactive),26.7 µM (inactive)
N#CC1Nc2ccccc2[C@@H](O)C1O (stereo partly specified),> 100 µM (inactive),> 100 µM (inactive),> 100 µM (inactive),> 100 µM (inactive),> 100 µM (inactive),> 100 µM (inactive),> 100 µM,> 100 µM (inactive),> 100 µM (inactive),> 100 µM (inactive),> 100 µM (inactive),> 100 µM (inactive),> 100 µM (inactive),> 100 µM (inactive),> 100 µM (inactive),> 100 µM (inactive),> 100 µM (inactive),> 100 µM (inactive),> 100 µM (inactive),
O=C(O)Cc1ccc2nc(COC(=O)c3ccccc3)sc2c1,> 100 µM (inactive),> 100 µM (inactive),> 100 µM (inactive),> 100 µM (inactive),> 100 µM (inactive),> 100 µM (inactive),> 100 µM,> 100 µM (inactive),> 100 µM (inactive),> 100 µM (inactive),83.8 µM (inactive),> 100 µM (inactive),> 100 µM (inactive),> 100 µM (inactive),,> 100 µM (inactive),> 100 µM (inactive),> 100 µM (inactive),> 100 µM (inactive),> 100 µM (inactive)
NCCSCc1ccccc1Cl,42.7 µM (inactive),37.5 µM (inactive),53.6 µM (inactive),43.4 µM (inactive),43.3 µM (inactive),63.4 µM (inactive),> 100 µM,36 µM (inactive),> 100 µM (inactive),> 100 µM (inactive),46.9 µM (inactive),64.6 µM (inactive),,18.6 µM (inactive),,47.3 µM (inactive),23.3 µM (inactive),31.3 µM (inactive),30.5 µM (inactive),48.2 µM (inactive)
O=c1c2sc3ccccc3sc=2c(=O)c2c(Cl)c(Cl)c(Cl)c(Cl)c12,> 100 µM (inactive),> 100 µM (inactive),> 100 µM (inactive),> 100 µM (inactive),> 100 µM (inactive),> 100 µM (inactive),39.7 µM,> 100 µM (inactive),> 100 µM (inactive),> 100 µM (inactive),> 100 µM (inactive),> 100 µM (inactive),> 100 µM (inactive),96.2 µM (inactive),,> 100 µM (inactive),> 100 µM (inactive),> 100 µM (inactive),> 100 µM (inactive),> 100 µM (inactive)
Brc1ccc2c(c1)-c1nc3c(cc1CC2)CCc1ccc(Br)cc1-3,> 100 µM (inactive),> 100 µM (inactive),,> 100 µM (inactive),> 100 µM (inactive),> 100 µM (inactive),> 100 µM,> 100 µM (inactive),> 100 µM (inactive),> 100 µM (inactive),> 100 µM (inactive),> 100 µM (inactive),> 100 µM (inactive),> 100 µM (inactive),,> 100 µM (inactive),> 100 µM (inactive),> 100 µM (inactive),> 100 µM (inactive),> 100 µM (inactive)
CCN(CC)CCCNC(=O)c1cc2cc(NC(=O)c3cc4cc([N+](=O)[O-])ccc4[nH]3)ccc2[nH]1,40.8 µM (inactive),> 100 µM (inactive),32.8 µM (inactive),> 100 µM (inactive),> 100 µM (inactive),> 100 µM (inactive),> 100 µM,51.1 µM (inactive),> 100 µM (inactive),> 100 µM (inactive),> 100 µM (inactive),30.3 µM (inactive),> 100 µM (inactive),> 100 µM (inactive),,7.21 µM (inactive),29.9 µM (inactive),> 100 µM (inactive),70.1 µM (inactive),
O=C1C(c2c(O)[nH]c3ccc([N+](=O)[O-])cc23)=Nc2ccccc21,59.8 µM (inactive),13.8 µM (inactive),> 100 µM (inactive),> 100 µM (inactive),> 100 µM (inactive),> 100 µM (inactive),> 100 µM,> 100 µM (inactive),> 100 µM (inactive),> 100 µM (inactive),> 100 µM (inactive),> 100 µM (inactive),> 100 µM (inactive),> 100 µM (inactive),,> 100 µM (inactive),> 100 µM (inactive),> 100 µM (inactive),> 100 µM (inactive),> 100 µM (inactive)
Cc1ccccc1N/C(N)=N/C#N,> 100 µM (inactive),> 100 µM (inactive),> 100 µM (inactive),> 100 µM (inactive),> 100 µM (inactive),> 100 µM (inactive),> 100 µM,> 100 µM (inactive),> 100 µM (inactive),> 100 µM (inactive),> 100 µM (inactive),> 100 µM (inactive),> 100 µM (inactive),> 100 µM (inactive),> 100 µM (inactive),,> 100 µM (inactive),> 100 µM (inactive),> 100 µM (inactive),
O=c1[nH]cc(NCCCl)c(=O)[nH]1,> 100 µM (inactive),> 100 µM (inactive),> 100 µM (inactive),> 100 µM (inactive),> 100 µM (inactive),> 100 µM (inactive),> 100 µM,> 100 µM (inactive),> 100 µM (inactive),> 100 µM (inactive),> 100 µM (inactive),> 100 µM (inactive),> 100 µM (inactive),> 100 µM (inactive),,> 100 µM (inactive),> 100 µM (inactive),> 100 µM (inactive),> 100 µM (inactive),> 100 µM (inactive)
CCN1C(=O)/C(=C2\SC(c3ccccc3)(c3ccccc3)c3ccccc32)SC1=S,43.3 µM (inactive),53.1 µM (inactive),> 100 µM (inactive),> 100 µM (inactive),75.5 µM (inactive),93.1 µM (inactive),> 100 µM,> 100 µM (inactive),> 100 µM (inactive),,47 µM (inactive),94.2 µM (inactive),> 100 µM (inactive),> 100 µM (inactive),,> 100 µM (inactive),> 100 µM (inactive),> 100 µM (inactive),> 100 µM (inactive),> 100 µM (inactive)
